The results in this text go back to paper PMC11131246, “Molecular determinants for brain targeting by peptides: a meta-analysis approach with experimental validation” (Fluids and Barriers of the CNS, 2024).

Where two headings read alike, the source gives them in different places. Residues, ends and D or L forms follow the SMILES beside them. No end group written: not given here. *: point of attachment. NODAGA = O=C(O)CN1CCN(CC(=O)O)CCN(C(CCC(=O)*)C(=O)O)CC1

The nature of data set [1]: Cytotoxicity, CellTiter-Blue cell viability assay. Type of data set: cell-based. The settings on record: human. The method, then: (§1) Peptide cytotoxicity was determined using the CellTiter-Blue® cell viability assay, following a described protocol. Briefly, all cell lines were carefully harvested with trypsin–EDTA and seeded 10.000–20.000 cells/100 μL into 96-well clear flat-bottomed polystyrene plates (Corning, USA) for 24 h. After medium removal, cells were washed twice with 1X PBS, and 100 µL of previously diluted peptides (range from 0.05–100.0 µM) in the respective medium were added to cells. Then, after 24 h, cells were washed twice with 1X PBS and 20 µL of CellTiter-Blue® Reagent (diluted in 100 µL of medium) was added to each well and incubated for 3 h in culturing conditions. The fluorescence intensity was measured using Varioskan™ LUX multimode microplate reader.
(§2) IC50 values were determined using GraphPad Prism 7.0 software using a log(inhibitor) versus normalized response. Experiments were performed in triplicates on different days using three independently grown cell cultures.
Background: Resazurin is reduced to fluorescent resorufin, in cell work by metabolically active cells.

Data set [2] is described as follows: Cytotoxicity, CellTiter-Blue cell viability assay. The settings on record: human. Type of data set: cell-based. On the procedure:
as §1, §2
The source holds these as a separate data set.

Data set [3] in a line: Cytotoxicity, CellTiter-Blue cell viability assay. Conditions: human. Type of data set: cell-based. The method, then:
as §1, §2
This is another data set of the same source.

Data set [4] can be described thus: Cytotoxicity, CellTiter-Blue cell viability assay. Type of data set: cell-based. The settings on record: human. On the procedure:
as §1, §2
The source holds these as a separate data set.

Data set [5] can be described thus: Cytotoxicity, CellTiter-Blue cell viability assay. Type of data set: cell-based. The settings on record: human. On the procedure: as §1, §2
This is another data set of the same source.

The test system of the next data set is HBEC-5i cells. In words: Translocation across in vitro BBB model (HBEC-5i monolayer, transwell). Type of data set: in vitro ADME, human. Conditions: HBEC-5i monolayer on AF-coated PET transwell inserts (1.0 µm pores), 8 days, CF-peptide 5.0 µM in DMEM:F12 without phenol red added to apical side, 24 h, fluorescence, plate reader, mean ± SD, triplicates of three independent experiments. The method, then:
Throughout 8 days, medium was changed every other day. On the day of the experiment, cells were washed twice with 1X PBS (137.0 mM NaCl, 2.7 mM KCl, 10.0 mM Na2HPO4, and 1.8 mM KH2PO4), and once with DMEM:F12 without phenol red. Then, CF-peptides (5.0 μM, in DMEM:F12 without phenol red) were added to the apical side of the in vitro BBB model and incubated for 24 h. Finally, samples from the apical and basolateral side were collected and fluorescence intensity analyzed using a Varioskan^TM LUX multimode microplate reader (Thermo Fisher, Spain). […] Experiments were performed in triplicates on different days using three independently grown cell cultures. Seeking experimental support for our hypothesis, we have synthesized and tested in vitro the activity of ten peptides (Table 1), selected among the 14 BBBpS entries by their lowest S score in an OLS ranking.

The nature of data set [6]: Analytical RP-HPLC retention time (used as indication of hydrophobicity). Type of data set: physicochemical. The settings on record: separate analytical RP-HPLC coupled to a γ-detector; 67Ga-NODA-GA labelled peptides.
The nature of data set [7]: Biodistribution of 67Ga-radiolabeled peptides. More on the design: species or system mouse. Conditions: female, in vivo, iv, 100 uCi, total radioactivity, mean ± SD, n = 3; for tissue uptake at 1 h / tissue uptake at 2 min: CD1, mouse, i.v. tail vein; for tissue uptake at 2 min: 2 min post injection. On the procedure: All animal experiments were performed in compliance with national and EU legislation for good practices on laboratory animal science. The animals were housed in a temperature and humidity-controlled environment with a 12 h light/12 h dark schedule. Biodistribution of radiolabeled peptides was performed on 7 weeks old CD1 female mice.
Animals were intravenously injected into the tail vein with 100 µL of a 25 µM saline solution of the ^67Ga-peptide with a radioactivity around 100 µCi. The mice were euthanized by cervical dislocation at 2 min and 1 h after injection. The dose administered and the radioactivity in the euthanized animals was measured using a dose calibrator (Carpintec CRC-15W, Ramsey, USA). The difference between the radioactivity in the injected and the euthanized animals was assumed to be due to excretion. Brain and tissues of interest without previous perfusion were dissected, washed, and weighed, and their radioactivity was measured using a γ counter (Hidex AMG, Hidex, Turku, Finland). The uptake in the brain and tissues of interest was calculated and expressed as a percentage of injected radioactivity dose per gram of tissue (% ID/g).

By IC50 is commonly meant the concentration that gives 50% inhibition. Lower therefore signals higher potency. Consider YTQDFNKFHTFPQTAIGVGAP-NH2 [BBBpS_6], for which the IC50 at 24 h in data set [1], in data set [2], in data set [3], in data set [4] and in data set [5] was greater than 100 µM each time.

In the case of `CSCC[C@H](NC(=O)[C@H](CC(C)C)NC(=O)CNC(=O)[C@H](Cc1ccccc1)NC(=O)[C@H](Cc1ccccc1)NC(=O)[C@H](CCC(N)=O)NC(=O)[C@H](CCC(N)=O)NC(=O)[C@@H]1CCCN1C(=O)[C@H](CCCCN)NC(=O)[C@@H]1CCCN1C(=O)[C@@H](N)CCCN=C(N)N)C(N)=O` [BBBpS_10], the IC50 at 24 h in data set [1], in data set [2], in data set [3], in data set [4] and in data set [5] was greater than 100 µM throughout.

Take YDEEGGGE-NH2 [non-BBBpS_3]: the IC50 at 24 h in data set [1], in data set [2], in data set [3], in data set [4] and in data set [5] was greater than 100 µM throughout.

Regarding LKTLTETLKELTKTLTEL-NH2 [BBBpS_7], the IC50 at 24 h in data set [1], in data set [2], in data set [3], in data set [4] and in data set [5] was greater than 100 µM throughout.

As for NRPDSAQFWLHH-NH2 [BBBpS_9], the IC50 at 24 h in data set [1], in data set [2], in data set [3], in data set [4] and in data set [5] was greater than 100 µM in each case.

Regarding APWHLSSQYSRT-NH2 [BBBpS_4], the IC50 at 24 h in data set [1], in data set [2], in data set [3], in data set [4] and in data set [5] was greater than 100 µM throughout.

With “AGILKRW [PepH3, well-tested BBBpS standard, reference compound]”, the “Translocation (%) HBEC-5i” value in the data set on HBEC-5i cells turned out to be 54.0 ± 2.2%.

For the compound `CC[C@H](C)[C@H](NC(=O)CNC(=O)[C@H](CCCNC(=N)N)NC(=O)[C@H](Cc1ccc(O)cc1)NC(=O)[C@H](CS)NC(=O)[C@@H](NC(=O)[C@H](CCCNC(=N)N)NC(=O)[C@H](Cc1ccccc1)NC(=O)[C@H](CS)NC(=O)[C@H](Cc1c[nH]c2ccccc12)NC(=O)[C@H](CCCCN)NC(=O)CCC(C(=O)O)N1CCN(CC(=O)O)CCN(CC(=O)O)CC1)C(C)C)C(=O)N[C@@H](CS)C(=O)N[C@@H](Cc1ccc(O)cc1)C(=O)N[C@@H](CCCNC(=N)N)C(=O)N[C@@H](CCCNC(=N)N)C(=O)N[C@@H](CS)C(=O)N[C@@H](CCCNC(=N)N)C(N)=O` (stereo partly shown) [67Ga-non-BBBpS_2, metal not drawn] ({NODAGA}-KWCFRVCYRGICYRRCR-NH2), in data set [6], the “HPLC tR” value was 12.99 min. For the same compound, the tissue uptake at 1 h in data set [7] (blood, 1 h post injection, CD1 female mice, 100 µL of 25 µM 67Ga-peptide, γ counter, read-out: Tissue distribution, Blood) came out at 0.9 ± 0.6 %ID/g; in data set [7] (bone, 1 h post injection, CD1 mice, read-out: Tissue distribution, Bone), 1.6 ± 0.1 %ID/g; in data set [7] (brain without perfusion, 1 h post injection, CD1 female mice, γ counter, read-out: Tissue distribution, Brain (brain uptake)) it was 0.13 ± 0.03 %ID/g; in data set [7] (heart, 1 h post injection, CD1 mice, read-out: Tissue distribution, Heart) it was 1.7 ± 0.1 %ID/g; in data set [7] (intestine, 1 h post injection, CD1 mice, read-out: Tissue distribution, Intestine), 1.6 ± 0.5 %ID/g; in data set [7] (kidney, 1 h post injection, CD1 mice, read-out: Tissue distribution, Kidney), 5.4 ± 0.8 %ID/g. The tissue uptake at 1 h was 22.8 ± 10.1 %ID/g in data set [7] (liver, 1 h post injection, CD1 mice, read-out: Tissue distribution, Liver); 2.4 ± 0.7 %ID/g in data set [7] (lung, 1 h post injection, CD1 mice, read-out: Tissue distribution, Lung); 1.2 ± 0.4 %ID/g in data set [7] (muscle, 1 h post injection, CD1 mice, read-out: Tissue distribution, Muscle); 3.7 ± 1.8 %ID/g in data set [7] (spleen, 1 h post injection, CD1 mice, read-out: Tissue distribution, Spleen); 1.7 ± 0.6 %ID/g in data set [7] (stomach, 1 h post injection, CD1 mice, read-out: Tissue distribution, Stomach). Besides, the tissue uptake at 2 min was 3.7 ± 0.5 %ID/g in data set [7] (bone, CD1 mice, read-out: Tissue distribution, Bone); 6 ± 0.8 %ID/g in data set [7] (heart, CD1 mice, read-out: Tissue distribution, Heart); 2.7 ± 0.7 %ID/g in data set [7] (intestine, CD1 mice, read-out: Tissue distribution, Intestine); 19.9 ± 0.4 %ID/g in data set [7] (kidney, CD1 mice, read-out: Tissue distribution, Kidney); 19.8 ± 0.7 %ID/g in data set [7] (liver, CD1 mice, read-out: Tissue distribution, Liver); 7.6 ± 1.5 %ID/g in data set [7] (lung, CD1 mice, read-out: Tissue distribution, Lung). The tissue uptake at 2 min in data set [7] (muscle, CD1 mice, read-out: Tissue distribution, Muscle) is 1.8 ± 0.5 %ID/g; in data set [7] (spleen, CD1 mice, read-out: Tissue distribution, Spleen) it was 5.6 ± 0.4 %ID/g; in data set [7] (stomach, CD1 mice, read-out: Tissue distribution, Stomach), 2.1 ± 0.6 %ID/g. In data set [7] (mouse, 1 h post injection, difference between radioactivity injected and in the euthanized animal, CD1 mice), the excretion (% injected dose) was 13.5 ± 5.1 %ID.

KYRSGAITIGY-NH2 [BBBpS_2]: the IC50 at 24 h in data set [1], in data set [2], in data set [3], in data set [4] and in data set [5] was greater than 100 µM throughout.

Consider HIQLSPFSQSWR-NH2 [BBBpS_5], for which the IC50 at 24 h in data set [1], in data set [2], in data set [3], in data set [4] and in data set [5] was greater than 100 µM in each case.

On to YKEATSTFTNITYRGT-NH2 [BBBpS_8], for which the IC50 at 24 h in data set [1], in data set [2], in data set [3], in data set [4] and in data set [5] was greater than 100 µM each time.

Consider KYKGAIIGNIK-NH2 [BBBpS_1], for which the IC50 at 24 h in data set [1], in data set [2], in data set [3], in data set [4] and in data set [5] was greater than 100 µM in each case.
